The values below come from patent publication US12194081B2, “ARGINASE1 polypeptides” (IO BIOTECH APS, priority 2018, dated 2025).

For the test, the system named is PBMCs from cancer patients and healthy donors. In words: in vitro IFNγ ELISPOT of PBMCs after 7 days with peptide and IL-2. The conditions noted are these: for responses in IFNγ ELISPOT (in words): PBMCs from 6 healthy donors, peptide and low dose IL-2 for 1 week, FIG. 1; for cancer patients showing responses in IFNγ ELISPOT: out of 16 cancer patients (8 melanoma, 6 multiple myeloma, 1 breast cancer, 1 renal cell carcinoma); for cancer patients showing responses in IFNγ ELISPOT / healthy donors showing responses in IFNγ ELISPOT: strong responses counted for ArgLong2, FIG. 2; for healthy donors showing responses in IFNγ ELISPOT: out of 19 healthy donors. The test is classed as cell-based, human. As to the method:
PBMCs from healthy donors were isolated using density gradient separation over LymphoprepTM (STEMCELL Technologies) and cryopreserved at -150° C. in FBS supplemented with 10% DMSO. PBMCs from cancer patients were isolated from blood sample a minimum of four weeks after the termination of any anti-cancer therapy. The protocol was approved by the Scientific Ethics Committee for The Capital Region of Denmark and conducted in accordance with the provisions of the Declaration of Helsinki. Written informed consent from the patients was obtained before study entry. […] The sequences of the peptides used in these experiments are shown in full below in alignment with each other, and are also set out in the section entitled “Sequences”). Peptides are described by SEQ ID NO, by name, or by reference to the start and end positions of each peptide sequence within the full length sequence of Arginase 1. Each may be used interchangeably. For example, the peptide of SEQ ID NO: 1 may alternatively be referred to by the name ArgLong2, or may alternatively be referred to as […]-206 (given a start position of 169 and end position of 206). The intended reference in each case will be clear from the context. For in vitro ELISPOT, PBMCs from cancer patients and healthy donors were pulsed with 20 μM of Arginase 1-derived peptides and 120 U/ml IL-2 in 24-well plates for 7 days before being used in an ELISPOT assay. The cells were placed in 96-well nitrocellulose ELISPOT plates (MultiScreen MAIP […]; Millipore) pre-coated with IFNγ capture antibody (Mabtech). Arginase peptides added to a final concentration of 5 μM and plates incubated at 37° C. for 14-16 hours. After the incubation the cells were washed off and secondary biotinylated Ab (Mabtech, cat. 3420-6-1000) was added for 2 hours at room temperature. Unbound secondary antibody was washed off and streptavidin conjugated alkaline phosphatase (AP) (Mabtech, cat. 3310-10) was added for 1 hour at room temperature. Unbound conjugated enzyme was washed off and the assay was developed by adding BCIP/NBT substrate (Mabtech, cat. 3650-10). Developed ELISPOT plates were analyzed on CTL ImmunoSpot S6 Ultimate-V analyzer using Immunospot software v5.1. Responses were reported as the difference between average numbers of spots in wells stimulated with Arginase 1 and wells without added peptide.

With “ISAKDIVYIGLRDVDPGEHYILKTLGIKYFSMTEVDRLGIGK (Peptide fragment of human Arginase 1 (ArgLong)) [42-mer, positions 169-210 of full length human Arginase 1]”, the “responses in IFNγ ELISPOT (in words)” value is given as “low or no responses”.
As for “AKDIVYIGLRDVDPGEHYIL (Peptide fragment of human Arginase 1 (Arg1-18)) [Arg171-190, previously described 20-mer Arginase 1 peptide (WO2018065563), reference compound]”, the “cancer patients showing responses in IFNγ ELISPOT” value is 3 cancer patients and the “healthy donors showing responses in IFNγ ELISPOT” value stood at 3 healthy donors.
Consider “KTLGIKYFSMTEVDRLGIGK (Peptide fragment of human Arginase 1 (Arg1-20)) [Arg191-210, previously described 20-mer Arginase 1 peptide (WO2018065563), reference compound]”, for which the “cancer patients showing responses in IFNγ ELISPOT” value is 3 cancer patients and the “healthy donors showing responses in IFNγ ELISPOT” value came out at 7 healthy donors.
For “DVDPGEHYILKTLGIKYFSM (Peptide fragment of human Arginase 1 (Arg1-19)) [Arg181-200, previously described 20-mer Arginase 1 peptide (WO2018065563), reference compound]” the same measures were 6 cancer patients and 4 healthy donors.
For “ISAKDIVYIGLRDVDPGEHYILKTLGIKYFSM (Peptide fragment of human Arginase 1 (ArgLong3)) [32-mer, positions 169-200 of full length human Arginase 1]”, the “responses in IFNγ ELISPOT (in words)” value is on record as “low or no responses”.
